Where a name gives a salt, the structure may show the parent alone.
Assays:
[1] = tested on: MPTP/AMPT mouse model; experiment: Superiority model, hypomotility in the MPTP/AMPT mouse model; assay type: in vivo; conditions: for activity count (0.5-1.5 h): AMPT 250 mg/kg SC
Procedure: MPTP (1-methyl-4-phenyl-1,2,3,6-tetrahydropyridine) is a neurotoxin that causes permanent symptoms of Parkinson's disease by killing certain neurons in the substantia nigra of the brain. It is used to study the disease in monkeys and mice. […] Various compounds (all dosed subcutaneously) were tested for their ability to reverse the motility deficits produced in this model.

[2] = tested on: rats with unilateral 6-OHDA lesions; experiment: Rotation response in 6-OHDA rats after buccal delivery; assay type: in vivo, rat
[3] = target: T1, human D2 receptor (Homo sapiens, UniProt P14416); experiment: D2 cAMP assay; assay type: cell-based
T1 construct: expressed in transfected cells; host or cells: CHO cells
T1 sequence (P14416 whole entry): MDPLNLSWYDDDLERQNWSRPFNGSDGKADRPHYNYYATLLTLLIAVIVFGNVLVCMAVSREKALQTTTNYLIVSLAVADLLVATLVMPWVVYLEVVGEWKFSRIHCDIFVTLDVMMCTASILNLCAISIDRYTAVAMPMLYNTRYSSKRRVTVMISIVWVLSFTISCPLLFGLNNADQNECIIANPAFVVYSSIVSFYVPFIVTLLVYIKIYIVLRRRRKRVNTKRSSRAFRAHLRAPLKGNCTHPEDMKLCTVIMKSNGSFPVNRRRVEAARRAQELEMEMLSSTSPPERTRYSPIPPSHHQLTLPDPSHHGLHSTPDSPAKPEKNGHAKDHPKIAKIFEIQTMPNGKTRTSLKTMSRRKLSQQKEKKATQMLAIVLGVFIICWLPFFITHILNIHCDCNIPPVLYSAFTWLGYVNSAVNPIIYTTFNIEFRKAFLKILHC
Procedure: The ability of the compounds to either stimulate or inhibit the D2 receptor mediated inhibition of cAMP formation in CHO cells transfected with the human D2 receptor was measured as follows. Cells were seeded in 96 well plates at a concentration of 8000 cells/well 3 days prior to the experiment. On the day of the experiment the cells were washed once in preheated G buffer (1 mM MgCl2, 0.9 mM CaCl2, 1 mM IBMX in PBS) and the assay was initiated by addition of 100 micro-1 of a mixture of 1 micro-M quinpirole, 10 microM forskolin and test compound in G buffer (antagonism) or 10 micro-M forskolin and test compound in G buffer (agonism).

[4] = target: T2, human recombinant D1 receptor (Homo sapiens, UniProt P21728); experiment: D1 cAMP assay; assay type: cell-based
T2 construct: expressed in transfected cells
T2 sequence (P21728 whole entry): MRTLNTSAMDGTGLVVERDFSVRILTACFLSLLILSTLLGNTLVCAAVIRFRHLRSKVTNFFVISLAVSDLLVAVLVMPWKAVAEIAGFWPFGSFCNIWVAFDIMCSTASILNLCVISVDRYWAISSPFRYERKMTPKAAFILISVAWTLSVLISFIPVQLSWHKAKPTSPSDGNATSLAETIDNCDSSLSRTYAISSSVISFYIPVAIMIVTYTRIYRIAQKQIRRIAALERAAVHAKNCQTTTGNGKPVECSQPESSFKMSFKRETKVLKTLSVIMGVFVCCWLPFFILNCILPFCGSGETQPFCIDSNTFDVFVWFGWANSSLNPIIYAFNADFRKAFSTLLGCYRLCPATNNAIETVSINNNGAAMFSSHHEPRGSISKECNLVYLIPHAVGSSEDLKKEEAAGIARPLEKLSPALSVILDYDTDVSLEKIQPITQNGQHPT
Procedure: The ability of the compounds to either stimulate or inhibit the D1 receptor mediated cAMP formation in CHO cells stably expressing the human recombinant D1 receptor was measured as follows. Cells were seeded in 96-well plates at a concentration of 11000 cells/well 3 days prior to the experiment.

[5] = tested on: rats with unilateral 6-OHDA lesions; experiment: Dyskinesia model with naive 6-OHDA rats (AIMS)
[6] = tested on: reserpinesed rats; experiment: Reversal of reserpine-induced hypomotility in rats; assay type: in vivo, rat; conditions: for activity count: reserpine 5 mg/kg SC 23-24 h before, over 3 hours
Procedure: Rats weighing ca. 200 g were treated with reserpine (5 mg/kg subcutaneously as a solution in 20% aqueous solutol for which pH was adjusted to 4 with methanesulfonic acid). […] Group 1: treated with 20% ethanol in 0.7% aqueous sodium chloride subcutaneously.

[7] = tested on: MPTP treated marmosets; experiment: Anti-parkinsonian effects in MPTP-treated common marmosets; assay type: in vivo, common marmoset; set-up: disability score (120 min) / disability score (180 min) / disability score (240 min) / disability score (300 min) / disability score (360 min) / disability score (420 min) / disability score (60 min): scale not given here
Procedure: The experiments were conducted using 6 MPTP treated marmosets (2.0 mg/kg daily for up to 5 consecutive days dissolved in sterile 0.9% saline solution). All the animals had previously been treated with L-DOPA (12.5 mg/kg p.o., plus carbidopa 12.5 mg/kg p.o.) administered daily for up to 30 days in order to induce dyskinesia. […] Domperidone was administered 60 min before any of the test compounds. Domperidone is an antidopaminergic drug that suppresses nausea and vomiting. Locomotor activity was assessed using test cages that are comprised of 8 photo-electric switches comprised of 8 infra-red beams which are strategically placed in the cage and interruption of a beam is recorded as one count. […] The assessment of motor disability was performed by a trained observer blinded to the treatment.
The dose chosen for this challenge is at the top of the dose response curve for this drug.

[8] = tested on: rats with unilateral 6-OHDA lesions; experiment: Rotation response in 6-OHDA rats after transdermal delivery; assay type: in vivo, rat
Procedure: We have used rats with unilateral 6-OHDA lesions to assess compound 10 for its ability to induce rotation after transdermal administration [for details on the model, see the description under example 7]. Three groups of six animals were treated with different doses of compound 10 administered transdermally. Compound 10 (24 mg) was suspended in a mixture of 0.02% ascorbic acid and 20% ethanol in saline (9 mL); the resulting suspension was diluted with dimethyl sulfoxide (0.45 mL). The appropriate amount of this formulation was applied to the ears of the animals. The ears were rubbed gently before the rotation response of the animals was assessed over 3 h. […]

[9] = tested on: rats with unilateral 6-OHDA lesions; experiment: D1/D2 dissection, rotation response in rats with unilateral 6-OHDA lesions; assay type: in vivo, rat
Description: Rats weighing 200-250 g were subjected to unilateral 6-OHDA lesions. […] Nemonapride is a D2 antagonist that blocks the D2 receptors, therefore any observed rotations would be dependent upon activity at the D1 receptors.

[10] = tested on: 6-OHDA rats; experiment: Reversal of L-DOPA-induced dyskinesias in 6-OHDA rats (AIMS); assay type: in vivo, rat
Description: Animals were observed on Days 1, 3 and 5 and AIMS were scored. The day 5 scores were then used to separate the animals into three groups of 6 animals each. Group 1 continued with daily L-DOPA treatment. […] Treatment continued daily for 10 days and the amount of dyskinesia was scored on days 1, 5, 9 and 10.

[11] = target: T3, hD5-transfected CHO-Ga16 cells (Homo sapiens, UniProt P21918); experiment: D5 assay, intracellular Ca2+ release (FLIPR); assay type: cell-based
T3 construct: expressed in transfected cells; host or cells: CHO-Ga16 cells
T3 sequence (P21918 whole entry): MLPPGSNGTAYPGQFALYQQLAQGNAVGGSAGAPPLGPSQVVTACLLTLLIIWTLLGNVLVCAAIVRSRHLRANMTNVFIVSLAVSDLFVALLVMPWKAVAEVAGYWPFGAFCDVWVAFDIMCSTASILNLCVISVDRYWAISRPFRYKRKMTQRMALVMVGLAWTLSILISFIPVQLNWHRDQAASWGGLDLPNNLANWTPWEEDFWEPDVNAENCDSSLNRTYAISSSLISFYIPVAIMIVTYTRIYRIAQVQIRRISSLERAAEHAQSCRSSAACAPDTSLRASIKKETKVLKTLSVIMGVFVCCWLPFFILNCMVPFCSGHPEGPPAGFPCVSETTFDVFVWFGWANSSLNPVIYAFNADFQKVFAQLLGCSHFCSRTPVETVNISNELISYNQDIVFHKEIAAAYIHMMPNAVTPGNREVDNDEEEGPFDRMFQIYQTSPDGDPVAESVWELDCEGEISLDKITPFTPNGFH

[12] = read-out: intrinsic activity (efficacy)

CCCN1CCC[C@@H]2Cc3c(ccc(O)c3O)C[C@H]21 [compound 10, (4aR,10aR)-1-n-Propyl-1,2,3,4,4a,5,10,10a-octahydro-benzo[g]quinoline-6,7-diol hydrobromide]
reversal of motility deficits ([1]; MPTP/AMPT mice, all dosed subcutaneously): restored locomotion in the mice in a dose-dependent manner | activity count (0.5-1.5 h) ([1]; Table 4c, 0.003 mg/kg SC, controls: vehicle 405, AMPT/vehicle 12): 8 | activity count (0.5-1.5 h) ([1]; Table 4c, 0.01 mg/kg SC): 228 | activity count (0.5-1.5 h) ([1]; Table 4c, 0.03 mg/kg SC): 440 | activity count (0.5-1.5 h) ([1]; Table 4e direct comparison, apomorphine 1 mg/kg SC, pramipexole 1 mg/kg SC, compound 10 0.030 mg/kg SC, controls: vehicle 509, AMPT/vehicle 2): 690 | mean number of rotations over 3 h ([2]; 0.1 mg/kg buccally): 1203 | induction of rotation ([2]; apomorphine subcutaneous, compound 10 buccal): induced circling behavior | EC50 [3]: 0.11 nM | Emax [3, 12]: 100% | EC50 [4]: 15.5 nM | Emax [4, 12]: 100% | mean AIM score (day 19) ([5]; group 1: compound 10 0.0013 mg/kg SC days 1-14, then compound 10 0.0013 mg/kg SC days 15-19): 25 | mean AIM score (day 19) ([5]; group 2: L-DOPA/Benserazide 6/15 mg/kg SC days 1-14, then compound 10 0.0013 mg/kg SC days 15-19): 18 | mean AIM score (day 19) ([5]; group 3: apomorphine 1 mg/kg SC days 1-14, then compound 10 0.0013 mg/kg SC days 15-19): 39 | dyskinesia score (AIMS) ([5]; once daily SC, scored days 1-12): about 30 | reversal of reserpine-induced hypomotility ([6]; administered buccally): reversed the hypomotility | reversal of reserpine-induced hypomotility ([6]; administered subcutaneously): reversed the reserpine-induced hypomotility | activity count ([6]; 0.05 mg/kg buccally): 378 | activity count ([6]; 0.10 mg/kg buccally): 533 | activity count ([6]; apomorphine 1 mg/kg SC, compound 10 0.01 mg/kg SC, controls: vehicle 486, reserpine/vehicle 17): 308 | disability score (60 min) ([7]; 0.001 mg/kg SC): 14.3 | disability score (120 min) ([7]; 0.001 mg/kg SC): 2.3 | disability score (180 min) ([7]; 0.001 mg/kg SC): 2.5 | disability score (240 min) ([7]; 0.001 mg/kg SC): 3.0 | disability score (300 min) ([7]; 0.001 mg/kg SC): 2.5 | disability score (360 min) ([7]; 0.001 mg/kg SC): 6.5 | disability score (420 min) ([7]; 0.001 mg/kg SC): 8.5 | disability score (60 min) ([7]; 0.01 mg/kg SC): 10.0 | disability score (120 min) ([7]; 0.01 mg/kg SC): 2.2 | disability score (180 min) ([7]; 0.01 mg/kg SC): 2.0 | disability score (240 min) ([7]; 0.01 mg/kg SC): 2.2 | disability score (300 min) ([7]; 0.01 mg/kg SC): 2.7 | disability score (360 min) ([7]; 0.01 mg/kg SC): 2.3 | disability score (420 min) ([7]; 0.01 mg/kg SC): 2.7 | effect on locomotor activity and motor disability ([7]; L-DOPA 12.5 mg/kg p.o., compound 10 0.001 or 0.01 mg/kg SC): dose-related increase in locomotor activity and reversal of motor disability | mean number of rotations over 3 h ([8]; 0.127 mg/kg transdermally (ears)): 482 | mean number of rotations over 3 h ([8]; 0.254 mg/kg transdermally (ears)): 837 | mean number of rotations over 3 h ([8]; 0.381 mg/kg transdermally (ears)): 1448 | induction of circling behavior ([8]; transdermal delivery, three dose groups): induced circling behavior in all three groups | MED (minimum effective dose to induce rotation) ([9]; dosed SC, 6-OHDA rats): 0.65 µg/kg | MEDNemonapride (MED to overcome Nemonapride block) ([9]; dosed SC, 6-OHDA rats, * = rotations could not be blocked by SCH23390): 1.3 µg/kg | mixed D1/D2 ratio ([9]; subcutaneous, 6-OHDA rat rotation model): about 2 | dyskinesias versus other groups (two-way repeated measures ANOVA) ([10]; L-DOPA-primed 6-OHDA rats, 10 days treatment): significantly fewer dyskinesias than both the pramipexole group and the L-DOPA/Benserazide group | mean AIM score (days 1, 5, 9, 10) ([10]; after 7 days L-DOPA/Benserazide priming, once daily days 1-10: L-DOPA/Benserazide 6/15 mg/kg SC, compound 10 0.0013 mg/kg SC, pramipexole […] SC): 44 | EC50 [11]: 0.06 nM | Emax ([11]; CHO-Ga16, read-out: intrinsic activity (efficacy)): 95%

Source: patent US20120077836A1, “METHODS OF ADMINISTERING (4AR,10AR)-1-N-PROPYL-1,2,3,4,4A,5,10,10A-OCTAHYDROBENZO [G] QUINOLINE-6,7-DIOL AND RELATED COMPOUNDS ACROSS THE ORAL MUCOSA, THE NASAL MUCOSA OR THE SKIN AND PHARMACEUTICAL COMPOSITIONS THEREOF” (priority 2009, published 2012)
